Assay results published in US20220387339A1, “SUPERFINE COMPOUNDS AND PRODUCTION THEREOF” (Esolate Ltd, priority 2019, published 2022).
Converted amounts (≈) assume the structure as drawn.

What was measured:
[1] = Visual solubility in water before and after processing (FIGS. 3-4); format: physicochemical; details: FIGS. 3 and 4
Excerpt: The crystals are insoluble in acid and in water.

[2] = isolates currently available; cited from earlier work
[3] = Visual solubility in simulated stomach conditions (Example 5); format: physicochemical
Experimental: Bioavailability of the cannabinoid ultrafine nanoparticles obtained as described in Example 4 was assessed by visually evaluating the solubility of the fine nanoparticles in simulated stomach conditions. 0.5 g of NaCl was added to a 0.155 M solution of HCl in water to replicate stomach acidic conditions. 10 mg of the fine nanoparticles, 10 mg of the isolates in crystalline form, and 10 mg of the distillates were each placed in vials containing 10 ml of the acidic solution and incubated for 10 hours at 37° C. At the end of the 10-hour period, only minimal solubility of the preparations was observed. Additional 10 ml of the acidic solution were added, and the mixtures were incubated for 10 more hours at 37° C. At the end of the 20-hour period, the cannabinoid nanoparticles dissolved in the acidic solution.

[4] = Relative bioavailability test: CBD concentration in water by HPLC-UV (Example 6); format: physicochemical; details: after 32 hours elapsed time, 0.45 μm filtered
Experimental: Relative bioavailability tests of the cannabinoid ultrafine nanoparticles obtained as described in Example 4 (test samples) as compared to cannabinoid isolates in water (control samples) were performed using a high performance liquid chromatography (HPLC) separator equipped with a UV detector to determine the concentration of CBD in each sample. Control samples were prepared by filtering 1 ml of each sample through a 0.45 μm filter into a 2 ml HPLC vial and 1 ml of methanol (MeOH) was added to each sample vial. HPLC mobile phase was comprised of 65% acetonitrile and 35% water. A flow rate of 1 ml per minute led to the elution of CBD after approximately 4.5 minutes.
A percentage area was measured after 32 hours elapsed time, which represents the amount of CBD in each sample relative to the background signal created by the MeOH in each sample.

[5] = Solubility of cyclodextrins in supercritical CO2 under process conditions (Example 3); details: for solubility in supercritical CO2: experimental conditions: 40° C., 3,500 psi

Compound: C=C(C)[C@@H]1CCC(C)=C[C@H]1c1c(O)cc(CCCCC)cc1O [CBD isolate, cannabidiol]
- solubility in water (visual) [1]: insoluble
- solubility in water [2]: 12.6 µg/mL (≈ 40.1 µM)
- solubility in acidic solution after 20 hours (visual) ([3]; 10 mg in 20 ml 0.155 M HCl with NaCl, 37° C., 20 hours): complete insolubility
- solubility in acid (visual) ([3]; acidic solvent resembling stomach conditions, FIGS. 3 and 5): insoluble
- percentage area (amount of CBD relative to MeOH background signal) [4]: 0.7706%

Compound: Cyclodextrin
- solubility under the process conditions (supercritical CO2) ([5]; 40° C., 3,500 psi): insoluble

Compound: CC(=O)OC[C@H]1O[C@@H]2O[C@H]3[C@H](OC(C)=O)[C@@H](OC(C)=O)[C@@H](O[C@H]4[C@H](OC(C)=O)[C@@H](OC(C)=O)[C@@H](O[C@H]5[C@H](OC(C)=O)[C@@H](OC(C)=O)[C@@H](O[C@H]6[C@H](OC(C)=O)[C@@H](OC(C)=O)[C@@H](O[C@H]7[C@H](OC(C)=O)[C@@H](OC(C)=O)[C@@H](O[C@H]8[C@H](OC(C)=O)[C@@H](OC(C)=O)[C@@H](O[C@H]1[C@H](OC(C)=O)[C@H]2OC(C)=O)O[C@@H]8COC(C)=O)O[C@@H]7COC(C)=O)O[C@@H]6COC(C)=O)O[C@@H]5COC(C)=O)O[C@@H]4COC(C)=O)O[C@@H]3COC(C)=O [ABCD, β-cyclodextrin heneicosaacetate]
- solubility in supercritical CO2 [5]: 1.3 wt. %

Compound: α-cyclodextrin exadeacetate [AACD]
- solubility in supercritical CO2 [5]: 1.1 wt. %
